How the values were obtained:
[1] = human
[2] = human; remark: listed apart in the source
[3] = Times to onset, minimal and maximal, observed in the indexed observations. [column 'DELAI' in source]; settings: human
[4] = human, serum
[5] = human; remark: listed apart in the source
[6] = human, serum; remark: listed apart in the source
[7] = Highest frequency of acute liver toxicity observed during clinical trials, expressed as a percentage. [column '% AIGUE' in source]; settings: human
[8] = Comments (NB not yet translated). [column 'COMMENTAIRES' in source]; settings: human
[9] = human; remark: listed apart in the source
[10] = human; remark: listed apart in the source
[11] = human; remark: listed apart in the source
[12] = human, serum, 4383 h
[13] = human; remark: listed apart in the source
[14] = human; remark: listed apart in the source
[15] = Proposed mechanism(s) of liver damage. [column 'MEC' in source]; settings: human
[16] = Highest frequency of moderate liver toxicity observed during clinical trials, expressed as a percentage. [column '% BIOL' in source]; settings: human
[17] = human; remark: listed apart in the source
[18] = Presence of at least one case with successful reintroduction. [column 'REINT' in source]; settings: human
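Throughout, for Hepatotoxicity (association with vascular disease): count of indexed literature references reporting vascular liver injury in humans, e.g. peliosis hepatitis, hepatic veno-occlusive disease or Budd-Chiari syndrome.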
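Throughout, for Hepatotoxicity (benign tumour): value is a count of indexed literature references citing a benign tumour confirmed by histopathology.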
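Throughout, for Hepatotoxicity (choleostasis): human cholestatic liver injury, shown by histopathology or by peak ALT or AST elevation over alkaline phosphatase ratio below 2, value counts indexed literature reports.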
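Throughout, for Hepatotoxicity (chronic liver disease): chronic liver injury confirmed by histopathology or persistently raised serum aminotransferase activity beyond 6 months, value given as the count of indexed literature references.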
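Throughout, for Hepatotoxicity (cirrhosis): value is a count of indexed literature references reporting cirrhosis confirmed by histopathology.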
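Throughout, for Hepatotoxicity (cytolytic): human cytolytic liver injury, shown by histopathology or by a ratio above 5 of peak ALT or AST elevation to alkaline phosphatase elevation, value counts indexed references.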
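Throughout, for Hepatotoxicity (granulomatous hepatitis): value is a count of indexed literature references reporting granulomatous liver disease confirmed by histopathology.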
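Throughout, for Hepatotoxicity (malignant tumour): malignant tumour confirmed by histopathology, value gives the count of indexed literature references reporting it.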
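Throughout, for Hepatotoxicity (severe hepatitis): human clinical data: severe hepatitis, meaning potentially life-threatening liver failure or clinically observed cases, the value counts how many indexed literature references report it.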
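Throughout, for Hepatotoxicity (steatosis): steatosis confirmed by histopathology, value is the count of indexed references.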

| Compound | Hepatotoxicity (granulomatous hepatitis) [1] | Hepatotoxicity (choleostasis) [2] | Hepatotoxicity (time to onset) [3] | Hepatotoxicity (moderate) [4] | Hepatotoxicity (association with vascular disease) [5] | Hepatotoxicity (acute) [6] | Hepatotoxicity (acute) [7] | Hepatotoxicity (comment) [8] | Hepatotoxicity (malignant tumour) [9] | Hepatotoxicity (cytolytic) [10] | Hepatotoxicity (benign tumour) [11] | Hepatotoxicity (chronic liver disease) [12] | Hepatotoxicity (steatosis) [13] | Hepatotoxicity (severe hepatitis) [14] | Hepatotoxicity (mechanism) [15] | Hepatotoxicity (moderate) [16] | Hepatotoxicity (cirrhosis) [17] | Hepatotoxicity (successful reintroduction) [18] | also measured |
| --- | --- | --- | --- | --- | --- | --- | --- | --- | --- | --- | --- | --- | --- | --- | --- | --- | --- | --- | --- |
| O=C(O)CCCc1ccc(N(CCCl)CCCl)cc1 [CHLORAMBUCIL] | 0 | 3 | 2 weeks - 25 months | 1 | 0 | 7 | 4.8% | PERICHOLANGITE REACTIVATION_HVB | 1 | 4 | 0 | 1 | 0 | 1 | Allergic | 5.3% | 1 | yes |  |
| CC(C)(S)[C@@H](N)C(=O)O [PENICILLAMINE] | 2 | 28 | 4 days - 2 years | 12 | 0 | 31 | 0% | CHOLESTASE_PROLONGEE CHOLANGITE | 0 | 5 | 0 | 1 | 5 | 0 | Allergic | 6% | 0 | yes |  |
| CC(C)OC(=O)C(C)(C)Oc1ccc(C(=O)c2ccc(Cl)cc2)cc1 [FENOFIBRATE] | 0 | 5 | 1 day - 3 years | 27 | 0 | 13 |  | RC/CLOFIBRATE CHOLESTASE_PROLONGEE DUCTOPENIE AC_ANTI-ML/-N | 0 | 11 | 0 | 4 | 0 |  | Allergic |  | 1 | yes | Hepatotoxicity (acute) ([7]; Liver): 2.7%; Hepatotoxicity (severe hepatitis) ([14]; Liver): 0; Hepatotoxicity (moderate) ([16]; Liver): 52.9% |
| O=C1NC(=O)C(c2ccccc2)(c2ccccc2)N1 [PHENYTOIN] |  |  | 1 day - 11 years | 29 | 0 | 84 |  | #MNI CHOLESTASE_PROLONGEE DUCTOPENIE #CBP | 0 |  | 0 | 6 | 4 |  |  |  | 0 | yes | Hepatotoxicity (granulomatous hepatitis) ([1]; Liver): 5; Hepatotoxicity (choleostasis) ([2]; Liver): 30; Hepatotoxicity (acute) ([7]; Liver): 2%; Hepatotoxicity (cytolytic) ([10]; Liver): 53; Hepatotoxicity (severe hepatitis) ([14]; Liver): 14; Hepatotoxicity (mechanism) ([15]; Liver): Allergic, Reactive metabolite; Hepatotoxicity (moderate) ([16]; Liver): 90% |
| CCOC(=O)n1ccn(C)c1=S [CARBIMAZOLE] | 1 | 14 | 1 day - 5 years | 2 | 0 | 18 | 0% | RC/METHIMAZOLE/BENZYLTHIOURACILE | 0 | 5 | 0 | 0 | 2 | 3 | Allergic | 0% | 0 | yes |  |
| COc1ccc([C@@H]2Sc3ccccc3N(CCN(C)C)C(=O)[C@@H]2OC(C)=O)cc1 [DILTIAZEM] | 2 | 5 | 1 day - 5 months | 20 | 0 | 11 | 2.4% | RC/AMLODIPINE | 0 | 6 | 0 | 0 | 1 | 1 | Allergic | 6% | 0 | yes |  |
| CC[C@H]1OC(=O)[C@H](C)[C@@H](O[C@H]2C[C@@](C)(OC)[C@@H](O)[C@H](C)O2)[C@H](C)[C@@H](O[C@@H]2O[C@H](C)C[C@H](N(C)C)[C@H]2O)[C@](C)(O)C[C@@H](C)C(=O)[C@H](C)[C@@H](O)[C@]1(C)O [ERYTHROMYCIN] | 0 | 55 | 12 hours - 5 weeks | 19 | 0 | 72 | 3% | CHOLANGITE #CBP RC/AMOXICILLINE/TROLEANDOMYCINE | 0 | 20 | 0 | 0 | 0 | 1 | Allergic, Toxic | 38% | 0 | yes |  |
| CN(C)CCC=C1c2ccccc2COc2ccccc21 [DOXEPIN] | 0 | 1 | 1 week | 3 | 0 | 2 | 0% | AC_ANTI-ML | 0 | 2 | 0 | 0 | 0 | 0 | Allergic | 33.3% | 0 | yes |  |
| c1ccc2[nH]c(-c3cscn3)nc2c1 [THIABENDAZOLE] | 0 | 13 | 2 weeks - 1.5 years | 2 | 0 | 13 | 0% | CHOLESTASE_PROLONGEE DUCTOPENIE #CBP | 0 | 2 | 0 | 0 | 0 | 0 | Allergic | 36% | 2 | yes |  |
| CCOC(=O)[C@H](CCc1ccccc1)N[C@@H](C)C(=O)N1CCC[C@H]1C(=O)O | 0 | 4 | 10 days - 3 years | 9 | 0 | 13 | 0% | DUCTOPENIE RC/CAPTOPRIL | 0 | 7 | 0 | 0 | 0 | 3 | Allergic | 2.8% | 0 | yes |  |
| CC(C)Cc1ccc(C(C)C(=O)O)cc1 (stereo not drawn) [IBUPROFEN] | 0 | 6 | 1 day - 4 months | 10 | 0 | 20 |  | RC/DICLOFENAC CHOLESTASE_PROLONGEE DUCTOPENIE REACTIVATION_HSV6 | 0 | 14 | 0 | 1 | 1 |  | Allergic, Overdose |  | 1 | yes | Hepatotoxicity (acute) ([7]; Liver): 0%; Hepatotoxicity (severe hepatitis) ([14]; Liver): 6; Hepatotoxicity (moderate) ([16]; Liver): 16% |
